How the values were obtained:
T47D = test: MTS growth assay, 3 days treatment; format: cell-based, human; conditions: Luminal A, 100 nM
Description: (§1) Breast cancer is a very heterogeneous disease consisting of multiple molecular subtypes. In order to examine the antitumorigenic properties of AMPI-109 in human breast cancer cells of various subtypes, a cohort of breast cancer cell lines were treated with AMPI-109 at its IC50 (the dose where 50% of the cells show the desired effects), equimolar 1,25D or ethanol control and cellular growth was quantified. In particular, the cell lines were treated at the approximate IC50 (100 nM) of AMPI-109, 1,25D (100 nM) or ethanol control for 3 days. MTS assays were then performed. The experiment was repeated three times with 6 replicates per experiment.
(§2) The percentage in Table 1 represents growth compared to control treatment. The p values represent significance of difference between 1,25D inhibition and AMPI-109 inhibition of growth. It can be concluded from the data that AMPI-109 inhibits the growth of multiple TN breast cancer subtypes and this inhibition appeared to be almost entirely specific for TN breast cancer cell lines.

MDA-468 = test: MTS growth assay, 3 days treatment; format: cell-based, human; conditions: MDA-468, TN (BL1), 100 nM
Description: as §1, §2

BT-549 = test: MTS growth assay, 3 days treatment; format: cell-based, human; conditions: BT-549, TN (M), 100 nM
Description: as §1, §2

MDA-453 = test: MTS growth assay, 3 days treatment; format: cell-based, human; conditions: MDA-453, HER2, 100 nM
Description: as §1, §2

MCF10A [1] = test: MTS growth assay, 3 days treatment; format: cell-based, human; conditions: Nonmalignant, 100 nM
Description: as §1, §2

HCC70 = test: MTS growth assay, 3 days treatment; format: cell-based, human; conditions: HCC70, TN (BL2), 100 nM
Description: as §1, §2

SUM149 = test: MTS growth assay, 3 days treatment; format: cell-based, human; conditions: SUM149, TN (BL2), 100 nM
Description: as §1, §2

MCF7 [2] = test: MTS growth assay, 3 days treatment; format: cell-based, human; conditions: MCF7, Luminal A, 100 nM
Description: as §1, §2

SKBR3 = test: MTS growth assay, 3 days treatment; format: cell-based, human; conditions: SKBR3, HER2, 100 nM
Description: as §1, §2

BT-20 [3] = test: MTS growth assay, 3 days treatment; format: cell-based, human; conditions: BT-20, TN (Unclass.), 100 nM
Description: as §1, §2

MDA-231 [4] = test: MTS growth assay, 3 days treatment; format: cell-based, human; conditions: MDA-231, TN (MSL), 100 nM
Description: as §1, §2

BT-474 = test: MTS growth assay, 3 days treatment; format: cell-based, human; conditions: BT-474, Luminal B, 100 nM
Description: as §1, §2

BT-20 [5] = test: Apoptosis ELISA assay, 24 hours; format: cell-based, human; conditions: 100 nM
Description: (§3) The inventors also examined the ability of AMPI-109 to induce apoptosis in TN breast cancer cells by performing ELISA assays. Various cell lines (MCF10A, MCF-7, BT-20 and MDA-231) were treated with ethanol control (C), paclitaxel (100 nM, (T)), 1,25D (100 nM), (D)), or AMPI-109 (100 nM), (A)) for 24 hours. ELISA assays were then performed. The p values in the figure were determined by T-test. […] Therefore, it can be concluded that AMPI-109 appears to specifically induce apoptosis in TN breast cancer cells.

MDA-231 [6] = test: Apoptosis ELISA assay, 24 hours; format: cell-based, human; conditions: 100 nM
Description: as §3

MCF-10A [7] = test: Cell viability by crystal violet staining, 7 days; format: cell-based, human; conditions: MCF-10A non-malignant, 100 nM
Description: (§4) In order to determine the effects of AMPI-109 on cell viability as one possible explanation of the reduction in tumor size, the inventors plated various breast cancer cell lines in 6-well dishes and treated with either ethanol control (CU), vitamin D (1,25D) or AMPI-109. 1,25D and AMPI-109 were administered at 100 nM. The plates were incubated for 7 days and cell viability was assessed by crystal violet staining.

MCF7 [8] = test: Cell viability by crystal violet staining, 7 days; format: cell-based, human; conditions: MCF7 luminal A, 100 nM
Description: as §4

BT-20 [9] = test: Cell viability by crystal violet staining, 7 days; format: cell-based, human; conditions: 100 nM
Description: as §4

MDA-231 [10] = test: Cell viability by crystal violet staining, 7 days; format: cell-based, human; conditions: 100 nM
Description: as §4

BT-20 cells [11] = test: Growth assay in BT-20 cells with VDR shRNA knock down, 72 hours; format: cell-based, human; conditions: p<0.001
From the text: The inventors used shRNAs directed against VDR in BT-20 cells and examined the response after treatment with AMPI-109. […] The non-silencing control is designated as pLKO.

[12] = system: patient-derived triple negative breast cancer tumor xenograft; test: Patient-derived TNBC tumor xenograft growth inhibition; format: in vivo, NOD-SCID mice; conditions: 1 ug/kg i.p. every other day for three weeks, vs vehicle
From the text: The inventors further examined the ability of AMPI-109 to inhibit the growth of a patient-derived triple negative breast cancer tumor xenograft. A tumor from a person diagnosed with stage 4 triple negative breast cancer was propagated by serial passage through NOD-SCID mice. The tumor was dissected into equal sizes and implanted into the left and right mammary fat pads of 12 NOD-SCID mice. Once the tumors reached 100 mm^3 in size the mice were randomized into vehicle- and AMPI-109-treated arms. A total of 19 tumors grew out (9 for vehicle, and 10 for AMPI-109 treated). Vehicle control or AMPI-109 (1 ug/kg body weight) was administered by i.p. injection every other day for three weeks. Upon completion of the study, the tumors were excised and volume and mass were determined. […] The results were shown in FIG. 1, where * indicates a p value of 0.018, which was determined by T-test.

[13] = system: human breast cancer cells; test: IC50 of AMPI-109 for cellular growth (MTS); format: cell-based; conditions: breast cancer cell lines, read-out: approximate IC50
Description: as §1

MCF10A [14] = test: PARP cleavage by western blot, 24 hours; format: cell-based, human; conditions: 100 nM
Description: (§5) Cleavage of poly (ADP)-ribose polymerase (PARP), a hallmark of apoptosis, was used to further investigate the ability of AMPI-109 to induce apoptosis of TN breast cancer cells. FIG. 2C, wherein PARP cleavage was determined by western blot, summarizes the results of cleaved PARP after treating MCF10A, MCF-7, BT-20 and MDA-231 with ethanol control (C), paclitaxel (100 nM, (T)), 1,25D (100 nM), (D)), or AMPI-109 (100 nM), (A)) for 24 hours. […] Accordingly, the results as described in FIG. 2A, FIG. 2B, and FIG. 2C indicate the capability of AMPI-109 as an agent to induce apoptosis of TN breast cancer cells.

MCF-7 [15] = test: PARP cleavage by western blot, 24 hours; format: cell-based, human; conditions: 100 nM
Description: as §5

BT-20 [16] = test: PARP cleavage by western blot, 24 hours; format: cell-based, human; conditions: 100 nM
Description: as §5

MDA-231 [17] = test: PARP cleavage by western blot, 24 hours; format: cell-based, human; conditions: 100 nM
Description: as §5

[18] = system: VDR-mediated gene expression; test: VDR-mediated gene expression; format: cell-based
BT-20 cells [19] = test: Block of AMPI-109-mediated growth inhibition by RXR antagonist; format: cell-based, human; conditions: doses which blocked VDR-mediated gene expression
From the text: VDR activates gene expression as a heterodimer with the retinoid X receptor (RXR). The inventors thus also tested whether pharmacologic inhibition of the VDR axis with HX531, an RXR antagonist, would block AMPI-109-mediated growth inhibition of BT-20 cells.

MCF-10A [20] = test: Apoptosis ELISA assay, 24 hours; format: cell-based, human; conditions: 100 nM
Description: as §3

MCF-7 [21] = test: Apoptosis ELISA assay, 24 hours; format: cell-based, human; conditions: 100 nM
Description: as §3

| Compound | % Control (growth compared to control treatment) (T47D) [%] | % Control (growth compared to control treatment) (MDA-468) [%] | % Control (growth compared to control treatment) (BT-549) [%] | % Control (growth compared to control treatment) (MDA-453) [%] | % Control (growth compared to control treatment) (MCF10A [1]) [%] | % Control (growth compared to control treatment) (HCC70) [%] | % Control (growth compared to control treatment) (SUM149) [%] | % Control (growth compared to control treatment) (MCF7 [2]) [%] | % Control (growth compared to control treatment) (SKBR3) [%] | % Control (growth compared to control treatment) (BT-20 [3]) [%] | % Control (growth compared to control treatment) (MDA-231 [4]) [%] | % Control (growth compared to control treatment) (BT-474) [%] | induction of apoptosis (ELISA) (BT-20 [5]) | induction of apoptosis (ELISA) (MDA-231 [6]) | other results |
| --- | --- | --- | --- | --- | --- | --- | --- | --- | --- | --- | --- | --- | --- | --- | --- |
| C=C1/C(=C\C=C2/CCC[C@]3(C)[C@@H]([C@H](C)CCCC(C)(C)O)CC[C@@H]23)C[C@@H](O)C[C@@H]1O [1,25D, reference compound] | 98 | 86 | 94 | 94 | 102 | 83 | 92 | 95 | 100 | 82 | 96 | 87 | – | – | – |
| C=C1/C(=C\C=C2/CCC[C@]3(C)[C@@H]([C@H](C)CCCC(C)(C)O)CC[C@@H]23)C[C@@H](OC(=O)CBr)C[C@@H]1O [AMPI-109, 1α,25-Dihydroxyvitamin D3-3β-bromoacetate] | 94 | 39 | 69 | 86 | 99 | 49 | 39 | 93 | 99 | 29 | 44 | 66 | strong induction of apoptosis | strong induction of apoptosis | cell viability (crystal violet staining) (MCF-10A [7]): no effect on cell viability; cell viability (crystal violet staining) (MCF7 [8]): no effect on cell viability; cell viability (crystal violet staining) (BT-20 [9]): significant reduction in cell viability; cell viability (crystal violet staining) (MDA-231 [10]): significant reduction in cell viability; growth inhibition (BT-20 cells [11]; BT-20 cells with VDR knocked down (VDR3, VDR8 shRNAs)): equally effective at inhibiting the growth; growth inhibition (BT-20 cells [11]; BT-20 control cells (pLKO non-silencing)): equally effective at inhibiting the growth; tumor mass [12]: significant reduction; tumor volume [12]: significant reduction; reduction of the size of the tumors ([12]; p 0.018): approximately 30%; IC50 [13]: ~100 nM; PARP cleavage (western blot) (MCF10A [14]): only in BT-20 and MDA-231 cells; PARP cleavage (western blot) (MCF-7 [15]): only in BT-20 and MDA-231 cells; PARP cleavage (western blot) (BT-20 [16]): promoted PARP cleavage; PARP cleavage (western blot) (MDA-231 [17]): promoted PARP cleavage |
| CN1c2ccc([N+](=O)[O-])cc2N=C(c2ccc(C(=O)O)cc2)c2cc3c(cc21)C(C)(C)CCC3(C)C [HX531] | – | – | – | – | – | – | – | – | – | – | – | – | – | – | effect on VDR-mediated gene expression [18]: blocked VDR-mediated gene expression; effect on AMPI-109-mediated growth inhibition (BT-20 cells [19]): did not inhibit the antiproliferative effects of AMPI-109 |
| CC(=O)O[C@H]1C(=O)[C@@]2(C)[C@H]([C@H](OC(=O)c3ccccc3)[C@]3(O)C[C@H](OC(=O)[C@H](O)[C@@H](NC(=O)c4ccccc4)c4ccccc4)C(C)=C1C3(C)C)[C@]1(OC(C)=O)CO[C@@H]1C[C@@H]2O [paclitaxel, reference compound] | – | – | – | – | – | – | – | – | – | – | – | – | induced apoptosis in all cells tested | induced apoptosis in all cells tested | induction of apoptosis (ELISA) (MCF-10A [20]): induced apoptosis in all cells tested; induction of apoptosis (ELISA) (MCF-7 [21]): induced apoptosis in all cells tested |

Source: patent publication US9539231B2, “Method for treating triple-negative breast cancer using AMPI-109” (The Regents of the University of Colorado, a body corporate, priority 2014, dated 2017)
